Test results as given in patent US10793527B2, “Adenosine monophosphate-activated protein kinase agonist” (NATIONAL YANG-MING UNIVERSITY, priority 2016, dated 2020).

Columns and labels:
[1] = system: undifferentiated cells; assay: Morphology of undifferentiated cells in the adipocyte culture; type: cell-based; settings: 2.5 μM (FIG. 5B)
Description: (§1) According to the standard procedure of adipocyte differentiation, human pre-adipocytes are treated with adipogenesis reagent (Gibco StemPro) for 14 days to induce differentiation into mature adipocytes. Next, mature adipocytes are treated with different concentrations of compound SCT-1015 (100 μM, 25 μM, 12.5 μM, 5 μM, and 2.5 μM), solvent only (Mock), or non-treated and cultivated for 48 hours. Then, the adipocytes are stained with adipoRed (Lonza inc.), and the cell number is evaluated by fluorescence signals measured at excited and emission wavelength are 485 nm and 572 nm, respectively. In addition, after the cells were treated with 2.5 μM. of the compound SCT-1015, the cell morphology was also observed through cell imaging.

[2] = system: HCC1806/luc2 cells; assay: In situ triple negative breast cancer mouse model (HCC1806/luc2-bearing orthotopic mice), IVIS; type: in vivo; settings: 20 mg/kg, fed daily for 14 days (FIG. 4)
Description: An in situ triple negative breast cancer mouse model (HCC1806/luc2-bearing orthotopic mice) is established with HCC1806 cells carrying the luciferase (luc2) gene. The experimental mice are divided into two groups, namely (1) control group: solvent; (2) experimental group: compound SCT-1015 (20 mg/kg), and the mice are fed daily for 14 days. On day 0 and day 14, the substrate of luciferase is injected into the peritoneal cavity of mice, and the luminescence from HCC1806/luc2 cells is detected by in vivo imaging system (IVIS) to monitor cell growth.
The results support that the compound of the present invention can activate AMPK to inhibit the growth of triple-negative breast cancer cells.

[3] = system: PLC/PRF/5 (PLC5) cells; assay: Cell viability of liver cancer cells (Prestoblue), PLC5; type: cell-based
Description: (§2) Hepatoma cell Huh-7 was obtained from Health Science Research Resources Bank (HSRRB, Osaka. Japan; JCRB0403); Hepatoma cell PLC/PRF/5 (PLC5), Sk-Hep-1 and HCC1806 were obtained from the American Type Culture Collection (ATCC, Manassas, Va.). All cell lines are cultured immediately and frozen, so the frozen cells can be thawed every 3 months to allow experiments are conducted with the same batch of cells.
(§3) Analysis is performed using a commercial kit Prestoblue assay produced by Thermo Fisher Scientific. Three liver cancer cell lines PLC/PRF/5, SK-hep1, and Huh-7 are cultured with compound SCT-1015 for 48 hours and 72 hours, respectively. […] The results support that the compound of the present invention can activate AMPK to inhibit the proliferation of liver cancer cells.

[4] = system: phosphorylated AMPKα (p-AMPKα); assay: Detection of AMPK phosphorylation by immuno-blot assay; type: cell-based; settings: PLC5, MDA-MB-231 and MDA-MB-453 cells; compared with the non-treated group (FIGS. 2A-2C)
Description: (§4) The liver cancer cell PCL5 and the triple negative breast cancer cell (TNBC) MBA-MB-231 and MDA-MB-453 are cultured with the compound SCT-1015, respectively. The cells are collected, wash, and lysed by RIPA buffer to obtain a protein extract. The protein concentration was measured by Bio-Rad Protein Assay dye reagent (Bio-Rad). The protein samples are diluted with 2 times SDS-loading buffer (100 mM Tris HCl, pH 6.8, 200 mM β-mercaptoethanol, 4% SDS, 0.02% bromophenol blue, and 20% glycerol) to adjust volume, and electrophoresis is carried out using 10% SDS polyacrylamide gels and followed by transferring to PVDF membrane. The primary antibody is added to detect the target protein on the membrane, and then the secondary antibody with horseradish peroxidase is added, followed by addition of substrate (enhanced SuperSignal West Pico Cheminluminescent Substrate, Pierce) to obtain the signal of the specific protein. and the protein content is determined by β-actin. The β-actin is used as an internal control for protein amount.

[5] = system: AMPK T172; assay: Detection of AMPK phosphorylation by ELISA assay in PLC5 cells; type: cell-based; settings: PLC5 cultured with 10 μM compound for 24 hours, compared to control group
Description: In this analysis, the commercial kit AMPK […] Phospho-ELISA Kit (KHO0651) produced by ThermoFisher Science is utilized. The hepatoma cell PLC5 is cultured with 10 μM of the compound for 24 hours, and the analysis is performed according to the manual, and the absorbance was detected at a wavelength of 450 nm.

[6] = molecular target: T1, AMPKα1 immunoprecipitated protein extract (Homo sapiens, UniProt Q13131); assay: AMPK enzyme activity assay (SAMS peptide), AMPKα1 immunoprecipitated from PLC5 protein extract; type: biochemical; settings: 20-20,000 nM compound; compared to the group without compound addition (FIG. 1A)
T1 construct: AMPKα1 immunoprecipitated protein extract; endogenous in cells; host or cells: PLC5 liver cancer cells (immunoprecipitate on Protein A/G magnetic beads)
Description: (§5) The protein extract of liver cancer cell PLC5 and the anti-AMPKα1 antibody were incubated in an immunoprecipitation buffer (G-Biosciences) overnight. Protein A/G Magnetic Beads (PureProteome™) are added to each sample respectively and incubated at 4° C. for 4 hours. In the case of the recombinant protein AMPK, 12.5 ng of the recombinant protein human AMPK (α1, β1, γ1) is incubated with various doses of the compound, and then AMPK activities are detected based on the manual of the SAMS peptide assay (Cyclex).
(§6) It is shown by FIGS. 1A and 1B that the SCT-1015 compound can increase the activity of AMPK in liver cancer cells.

[7] = Treatment of diet-induced obesity (DIO) mice, body weight; type: in vivo; settings: compared to the control group of mice (FIG. 6)
Text: The male mice C57BL/6 were purchased from the National Laboratory Animal Center (NLAC, Taipei, Taiwan) and fed high-fat-die for 4 weeks to establish the diet-induced obesity (DIO) mouse model for subsequent experiments

[8] = system: HIF1 and PDHK1; assay: Immuno-blot of downstream signaling molecules in liver cancer cell lines; type: cell-based; settings: PLC/PRF/5, SK-hep1 and Huh-7 (FIG. 2D)
Description: as §4

[9] = system: Huh-7 cells; assay: Cell viability of liver cancer cells (Prestoblue), Huh-7; type: cell-based; settings: 5-20 μM, 48 hours and 72 hours, compared with control (DMSO) (FIG. 3)
Description: as §2, §3

[10] = system: SK-hep1 cells; assay: Cell viability of liver cancer cells (Prestoblue), SK-hep1; type: cell-based; settings: 5-20 μM, 48 hours and 72 hours, compared with control (DMSO) (FIG. 3)
Description: as §2, §3

[11] = molecular target: recombinant protein human AMPK (α1, β1, γ1) (Homo sapiens, UniProt Q13131); assay: AMPK enzyme activity assay (SAMS peptide), recombinant protein; type: biochemical; settings: 20-2,000 nM compound; compared with the group without compound addition (FIG. 1B)
Description: as §5, §6

[12] = system: mature adipocytes; assay: Cell growth of adipocytes (adipoRed staining, cell imaging); type: cell-based, human
Description: as §1

T1 sequence (Q13131 whole entry): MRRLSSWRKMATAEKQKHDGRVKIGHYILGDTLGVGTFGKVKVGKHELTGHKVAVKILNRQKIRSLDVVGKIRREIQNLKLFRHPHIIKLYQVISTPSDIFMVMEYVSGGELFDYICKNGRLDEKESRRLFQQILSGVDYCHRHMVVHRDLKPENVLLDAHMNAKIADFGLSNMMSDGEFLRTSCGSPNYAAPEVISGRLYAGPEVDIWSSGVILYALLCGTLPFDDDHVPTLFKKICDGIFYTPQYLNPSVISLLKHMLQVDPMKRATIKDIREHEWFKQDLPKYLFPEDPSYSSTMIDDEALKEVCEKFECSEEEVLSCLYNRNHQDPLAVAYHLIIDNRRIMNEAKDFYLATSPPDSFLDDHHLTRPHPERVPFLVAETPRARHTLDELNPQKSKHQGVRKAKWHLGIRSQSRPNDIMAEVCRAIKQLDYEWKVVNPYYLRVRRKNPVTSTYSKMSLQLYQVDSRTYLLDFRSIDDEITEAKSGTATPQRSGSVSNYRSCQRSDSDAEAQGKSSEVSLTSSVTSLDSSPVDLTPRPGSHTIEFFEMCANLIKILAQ
T1 sequence (Q9Y478 2-270 partner limits assumed): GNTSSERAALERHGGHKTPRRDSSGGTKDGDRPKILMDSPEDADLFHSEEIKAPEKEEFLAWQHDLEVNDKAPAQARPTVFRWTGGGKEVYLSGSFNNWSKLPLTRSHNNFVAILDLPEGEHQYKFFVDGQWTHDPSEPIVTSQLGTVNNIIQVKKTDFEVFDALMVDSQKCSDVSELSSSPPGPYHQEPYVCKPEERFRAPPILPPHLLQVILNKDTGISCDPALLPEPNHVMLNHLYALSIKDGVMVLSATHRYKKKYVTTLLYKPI
T1 sequence (P54619 whole entry partner): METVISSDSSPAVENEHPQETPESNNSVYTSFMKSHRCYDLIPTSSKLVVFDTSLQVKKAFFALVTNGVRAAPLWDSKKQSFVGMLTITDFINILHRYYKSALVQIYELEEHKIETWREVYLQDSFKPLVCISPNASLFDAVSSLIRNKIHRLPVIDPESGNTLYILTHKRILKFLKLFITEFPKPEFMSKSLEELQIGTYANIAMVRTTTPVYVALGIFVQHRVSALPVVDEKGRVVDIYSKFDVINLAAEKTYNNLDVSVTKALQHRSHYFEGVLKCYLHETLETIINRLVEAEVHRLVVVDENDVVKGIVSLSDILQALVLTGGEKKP
Chain of recombinant protein human AMPK (α1, β1, γ1) (Q13131 whole entry): as the sequence (Q13131 whole entry) above
Chain of recombinant protein human AMPK (α1, β1, γ1) (Q9Y478 whole entry partner): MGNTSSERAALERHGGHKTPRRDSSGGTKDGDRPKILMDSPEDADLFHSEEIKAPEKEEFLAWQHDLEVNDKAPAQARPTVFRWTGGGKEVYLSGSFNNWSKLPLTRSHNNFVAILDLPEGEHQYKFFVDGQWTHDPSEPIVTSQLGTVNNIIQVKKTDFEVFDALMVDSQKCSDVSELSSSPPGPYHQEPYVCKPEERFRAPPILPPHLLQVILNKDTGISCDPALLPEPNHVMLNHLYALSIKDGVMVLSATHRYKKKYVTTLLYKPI
Chain of recombinant protein human AMPK (α1, β1, γ1) (P54619 whole entry partner): as the sequence (P54619 whole entry partner) above

With `O=C(Nc1cccc(Nc2nccc(-c3ccc[nH]3)n2)c1)Nc1ccc(Cl)c(C(F)(F)F)c1` [SCT-1015, 1-(3-((4-(1H-pyrrol-2-yl)pyrimidin-2-yl)amino)phenyl)-3-(4-chloro-3-(trifluoromethyl)phenyl)urea] the “cell morphology of undifferentiated cells” value [1] was “maintain a healthy cell morphology”, the “number of HCC1806/luc2 cell on day 14 compared to control group” value [2] was “significantly less” and the “number of HCC1806/luc2 cell on day 14 compared to day 0” value [2] was “does not show noteworthy increase”. The IC50 ([3]; PLC5 cells, 48 hr) was 12.1 µM, the cell proliferation ([3]; PLC/PRF/5, 5-20 μM, 48 hours and 72 hours, compared with control (DMSO) (FIG. 3)) was “inhibit the cell proliferation significantly” and the “expression of phosphorylated AMPKα (p-AMPKα)” value [4] was “significantly increased”. For the same compound, the “AMPK T172 activity” value [5] was 1.8 fold, the AMPK activity [6] was “significant increase” and the body weight lost [7] was 5%. The “regulation of downstream signaling molecules HIF1 and PDHK1” value [8] was “regulates the downstream signaling molecules HIF1 and PDHK1”, the cell proliferation [9] was “inhibit the cell proliferation significantly” and the cell proliferation [10] was “inhibit the cell proliferation significantly”. For the same compound, the “activity of the recombinant protein AMPKα1/β1/γ1” value [11] was “significant increase”, the “cell morphology of mature adipocytes” value ([12]; 2.5 μM (FIG. 5B)) was “shrinkage and death” and the “number of the mature adipocytes” value ([12]; 2.5-100 μM, 48 hours, compared to control (Mock), dose-dependent (FIG. 5A)) was “significantly decreased”.
